The values below come from publication PMC11040670, “Mechanistic and Kinetic Insights into Cellular Uptake of Biomimetic Dinitrosyl Iron Complexes and Intracellular Delivery of NO for Activation of Cytoprotective HO-1” (JACS Au, 2024).

Where “and” joins values, the source holds several entries; their conditions need not be identical. Equal values may be shown once. Marks after values point to notes of the source that are not given here.

The Log P is the decadic logarithm of the partition coefficient of the neutral form, usually between octanol and water.

One series deals with T1, metMb (Equus caballus, UniProt P68082).
T1 construct: purchased Sigma
The series can be described thus: Transfer of NO− to metMb yielding MbNO (UV–vis). The class given is biochemical. Conditions: for reaction time for complete conversion of metMb into MbNO: metMb 5 μM/Cys 200 μM, generated [(NO)2Fe(SR)(SCys)]n−, phosphate buffer (pH 7.4), anaerobic; for change of UV–vis absorption bands of metMb (NO−-transfer): metMb in the presence of BSA (50 mg/mL). As for the experimental part: After addition of 30 μL of 500 μM stock solution of DNIC–COOH (in DMSO) to a 4 mL quartz cuvette containing 5 μM metMb and 200 μM Cys in 3 mL of 25 mM PBS (pH 7.4), UV–vis spectra for this mixture solution were measured every 30 min. Transformation of […] into MbNO was achieved after reaction for 4 h based on the complete shift of UV–vis absorption bands from (410, 502, and 629) nm to (419, 548, and 578) nm.
Reactions of (a) 5 μM of DNIC–COOMe with 5 μM of metMb in the presence of 200 μM of Cys, (b) 5 μM of DNIC–COOH/DNIC–COOMe with 5 μM of deoxyMb in the presence of 200 μM of Cys, and (c) 5 μM of DNIC–COOH/DNIC–COOMe with 5 μM of metMb in the presence of 50 mg/mL BSA were performed under a similar manner.

The test system of another series is MSC. The series can be described thus: Intracellular release of NO (DAF-FM fluorescence) in MSC. The class given is cell-based, human. To be noted: 100 μM DNIC–COOH or 2.5 μM DNIC–COOMe. How it is done: Intracellular release of NO by DNIC–COOH was validated using the fluorescence probe 4-amino-5-methylamino-2′,7′-difluorofluorescein diacetate (DAF-FM) in combination with fluorescence analysis techniques. Briefly, the MSC cells (or N2a and HCEC cells) were seeded onto a 96-well black plate at a density of 6 × 10^3 cells/well (or 1 × 10^4 cells/well for N2a and 8 × 10^3 cells/well for HCEC cells) and incubated at 37 °C overnight. On the next day, the MSC cells were first treated with 10 μM of DAF-FM (or 5 μM for N2a and HCEC cells) and incubated at 37 °C for 0.5 h. […] Fluorescence intensity of the cells was then recorded using a microplate reader (SpectraMax iD3, Molecular Devices, San Jose, CA) with an excitation wavelength at 485 nm and an emission wavelength at 525 nm. Three independent experiments were executed to measure the time-dependent change of average fluorescence intensity. Time-dependent change of average fluorescence intensity for the MSC/N2a/HCEC cells with sequential treatment of DAF-FM (10 μM for MSC cells, 5 μM for N2a cells, 5 μM for HCEC cells; 0.5 h) and DNIC–COOMe (2.5 μM for MSC cells, 10 μM for N2a cells, 1 μM for HCEC cells) was determined in a similar manner. […]

Series [1] in a line: Log D7.4 / Log P by n-octanol partitioning (UV–vis). Conditions: for Log D7.4: PBS (pH 7.4)/n-octanol. Type of series: physicochemical. As for the experimental part:
PBS (pH 7.4) and n-octanol were fully degassed before use. After adding 20 μL of 100 mM stock solution of DNIC–COOH in DMSO to 19.98 mL of PBS (pH 7.4), 2 mL of this 100 μM DNIC–COOH solution was added with 2 mL of n-octanol. This mixture solution was vortexed thoroughly for 30 s and incubated until the two solutions were separated. UV–vis spectra of DNIC–COOH in PBS (pH 7.4) and n-octanol were measured in order to determine Log D7.4 using the equation shown below:[96] [drawing 1] AO is the A362 in n-octanol, and APBS is the A362 in PBS (pH 7.4) after partitioning. Log D7.4 for DNIC–COOMe was determined in a similar manner. On the other hand, the Log P value for DNIC–COOH was measured based on its distribution in ddH2O and n-octanol using a similar procedure.[97],[98]

T1 sequence (P68082 2-154 limits assumed): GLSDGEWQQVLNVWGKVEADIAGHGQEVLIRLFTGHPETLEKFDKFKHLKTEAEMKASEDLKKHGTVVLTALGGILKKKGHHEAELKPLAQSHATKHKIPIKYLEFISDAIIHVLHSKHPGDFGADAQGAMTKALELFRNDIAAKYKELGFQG

Turning to `O=[N][Fe]1([N]=O)[SH](CCC(=O)O)[Fe]([N]=O)([N]=O)[SH]1CCC(=O)O` (centres unmarked) [DNIC–COOH, [(NO)2Fe(μ-SCH2CH2COOH)2Fe(NO)2]], the “reaction time for complete conversion of metMb into MbNO” value on metMb was 4 h and 4.0 ^f h; at metMb (listed as DNIC-COOH), 4.0 h. Further, the “change of UV–vis absorption bands of metMb (NO−-transfer)” value on metMb was “no change”. For the same molecule, the “tmax for intracellular release of NO” value in the series on MSC is on record as 4 h. Besides, the “Log D7.4” value in series [1] is reported as −2.3. Moreover, in series [1] (ddH2O/n-octanol), the “Log P” value is listed as 1.2.
As for `COC(=O)CC[SH]1[Fe]([N]=O)([N]=O)[SH](CCC(=O)OC)[Fe]1([N]=O)[N]=O` (centres unmarked) [DNIC–COOMe, [(NO)2Fe(μ-SCH2CH2COOCH3)2Fe(NO)2]], the “reaction time for complete conversion of metMb into MbNO” value on metMb is listed as 4.0 ^f h; on metMb (listed as DNIC-COOMe), 4.0 h. The “change of UV–vis absorption bands of metMb (NO−-transfer)” value on metMb is on record as “no change”. Further, the “tmax for intracellular release of NO” value in the series on MSC amounted to 1 h. Also, the “Log D7.4” value in series [1] came to 1.0.
